Results as given in US10717704B2, “Inhibitors of creatine transport and uses thereof” (Rgenix, Inc., priority 2014, dated 2020).

What was measured:
[1] = target: T1, creatine transporter (Mus musculus, UniProt Q8VBW1); assay: In vivo creatine transporter inhibition assay (creatine-d3 transport in heart tissue); design: species or system C57Bl6 male mice; conditions: i.p. 250 mg/kg β-GPA equivalent (1.91 mmol/kg), creatine-d3 1 mg/kg i.p. 7 minutes after drug, hearts after one hour, relative to vehicle control, mean of three hearts
T1 construct: from tissue; host or cells: heart of C57Bl6 male mice (in vivo dosing)
T1 sequence (Q8VBW1 1-635): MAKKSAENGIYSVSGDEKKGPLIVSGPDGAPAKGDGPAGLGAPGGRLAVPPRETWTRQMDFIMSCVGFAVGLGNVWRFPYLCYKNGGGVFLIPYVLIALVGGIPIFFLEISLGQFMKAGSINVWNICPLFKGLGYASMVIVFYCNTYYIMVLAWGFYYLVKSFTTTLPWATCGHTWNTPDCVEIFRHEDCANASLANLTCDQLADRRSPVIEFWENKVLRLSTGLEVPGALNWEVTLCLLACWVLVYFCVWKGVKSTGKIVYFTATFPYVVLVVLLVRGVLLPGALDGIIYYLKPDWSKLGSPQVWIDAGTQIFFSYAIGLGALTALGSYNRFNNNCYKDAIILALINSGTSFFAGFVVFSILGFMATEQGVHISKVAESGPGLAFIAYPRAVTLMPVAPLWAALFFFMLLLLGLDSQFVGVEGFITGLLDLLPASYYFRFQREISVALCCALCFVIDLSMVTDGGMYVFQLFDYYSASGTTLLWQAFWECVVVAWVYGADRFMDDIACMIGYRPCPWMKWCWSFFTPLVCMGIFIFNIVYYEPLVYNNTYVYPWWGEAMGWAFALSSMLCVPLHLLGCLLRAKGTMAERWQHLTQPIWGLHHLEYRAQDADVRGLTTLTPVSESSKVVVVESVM
Method: Soluble compounds were formulated in saline solution (0.9% NaCl). […] Studies were performed on 6-7 week old C57Bl6 male mice, receiving a regular diet (Purina 5001, Research Diet) and on a regular sleep rhythm (12 h night/day schedule). Experiments were performed ˜6 h after exposing to daylight. Mice were weighed and randomly divided into groups of 3 mice per group and injected i.p. with 100-200 μL of dosing solution to deliver 250 mg/kg (50 mg/mL or 381 mM) β-GPA equivalent (i.e. 1.91 mmol/kg) along with a vehicle control. […] Volumes were adjusted based on the weight of the mice to reach a final dose of 1 mg/kg. After one hour, mice were euthanized, hearts were perfused with PBS, removed, snap-frozen in liquid nitrogen, and stored at −80° C. until further processing. Mouse hearts were thawed and weighed into 1.5 mL Eppendorf conical tubes. Typical heart weights range from […]. […] The samples were then placed in a MiniBeadBeater (BioSpec Products, Inc.) for 2 minutes to disrupt the tissue and homogenize the sample. Aliqouts (20 μL) of the homogenized hearts were transferred to a 96-well microtiter plate. […] Supernatant (900 μL) was transferred to 96-well deep well plate for analysis. Calibration standards, blanks, and quality control samples are prepared from control mouse hearts homogenized as noted above. Aliquots of homogenate were then spiked with known quantities of creatine-d3 (CDN Isotopes, Pointe-Claire, Quebec) or solvent, and processed along with the samples as noted above. Analysis was conducted by LC-MS/MS using an Acquity UPLC (Waters Corp., Milford, Mass.)/Triple Quad 5500 (AB Sciex, Framingham, Mass.) system. […] A binary gradient of acetonitrile and 10 mM ammonium acetate was used to elute analytes from the column. The mass spectrometer was operated in positive ion electrospray in Multiple Reaction Monitoring mode for the following mass transitions: Data were collected and processed using Analyst 1.6.2 (AB Sciex, Framingham, Mass.). […] Data was report as μg of creatine-d3 per gram of heart. Mean values and standard deviations were calculated from three heart samples and percent creatine-d3 transport inhibition was reported relative to vehicle control.

[2] = tested on: LvM3b cells with CKB knockdown; assay: Liver metastasis of CKB knockdown LvM3b cells pre-treated with metabolite; type: in vivo, mice
Method: 5×10^5 highly metastatic cancer cells were injected into the portal circulation of immunodeficient mice. One day after inoculation of cancer cells, mice were injected indicated amounts of drug in 300 μL PBS. Treatment was continued daily and metastatic progression was monitored by bioluminescent imaging until the mice were euthanized at which point livers were excised for bioluminescent imaging and gross histology. Where indicated, cancer cells were pre-treated with indicated amounts of compound for 48 hrs before injection into immunodeficient mice.
CKB is known to regulate the reservoir of rapidly mobilized high-energy phosphates in tissues such as the brain and kidneys by catalyzing the transfer of a high-energy phosphate group from phosphocreatine to ADP, yielding ATP and creatine. It was hypothesized that CKB generation of ATP from phosphocreatine might provide colon cancer cells with an energetic advantage during hepatic colonization. […] Metastatic burden was monitored by bioluminescent imaging and mice euthanized 21 days after injection.
Similar studies were done to determine whether creatine and phosphocreatine could rescue the phenotype of seen upon CKB knock-down. […] Liver metastasis was monitored by bioluminescent imaging and mice were euthanized as described above.

[3] = tested on: LvM3b cells; assay: Liver metastasis assay, LvM3b colon cancer cells, drug treatment of mice; type: in vivo, NOD-SCID mice; conditions: for metastatic colonization (bioluminescent measurements of liver metastasis): 5×10^5 LvM3b cells, treated daily for two weeks, intra-peritoneal
Method: One day after inoculation of cancer cells, mice were injected indicated amounts of drug in 300 μL PBS. Treatment was continued daily and metastatic progression was monitored by bioluminescent imaging until the mice were euthanized at which point livers were excised for bioluminescent imaging and gross histology. Where indicated, cancer cells were pre-treated with indicated amounts of compound for 48 hrs before injection into immunodeficient mice. […] The treatment regime started one day after inoculation of tumor cells and continued until the mice were euthanized. […] Treatment regime were as that for cyclocreatine treatment. Finally, assays were carried out to determine the impact of small-molecule inhibition of CKB and restriction of creatine availability on colon cancer metastasis. Cyclocreatine, which resembles phosphocreatine, is a transition-state analog for creatine kinases. […] The mice were then euthanized and livers excised for ex vivo imaging at the end of the treatment. […] Similar assays were carried out using a creatine transporter inhibitor beta-guanidinopropionic acid (β-GPA). […] In this example, assays were carried out to confirm the therapeutic potential of targeting the creatine transporter channel SLC6a8 by administering the small molecule β-GPA, which is an inhibitor of SLC6a8. […] To confirm this therapeutic effect, mice injected with LvM3b colon cancer cells we treated with either β-GPA or control vehicle (PBS) via intra-peritoneal injection daily for three weeks (FIG. 2). The mice were euthanized at three weeks and liver extracted for bioluminescent imaging and gross histology.

[4] = target: CKB (Homo sapiens, UniProt P12277); conditions: read-out: ki (inhibitor of CKB); cited from earlier work
Sequence of CKB (P12277 whole entry): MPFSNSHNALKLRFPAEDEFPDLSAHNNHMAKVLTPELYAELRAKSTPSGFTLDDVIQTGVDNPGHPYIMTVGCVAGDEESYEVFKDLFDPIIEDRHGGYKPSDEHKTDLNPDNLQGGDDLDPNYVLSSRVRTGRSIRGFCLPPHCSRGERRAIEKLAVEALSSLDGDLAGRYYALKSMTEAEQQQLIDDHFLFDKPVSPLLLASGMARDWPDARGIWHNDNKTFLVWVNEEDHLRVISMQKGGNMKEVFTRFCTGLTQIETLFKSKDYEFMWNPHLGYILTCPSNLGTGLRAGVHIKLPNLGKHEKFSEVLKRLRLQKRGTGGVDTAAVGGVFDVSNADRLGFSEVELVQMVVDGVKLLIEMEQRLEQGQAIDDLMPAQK

[5] = tested on: PANC1 pancreatic cancer cells; assay: Survival of disseminated PANC1 cells in vivo after β-GPA pre-treatment; design: species or system immunodeficient mice
Method: One day after inoculation of cancer cells, mice were injected indicated amounts of drug in 300 μL PBS. Treatment was continued daily and metastatic progression was monitored by bioluminescent imaging until the mice were euthanized at which point livers were excised for bioluminescent imaging and gross histology. Where indicated, cancer cells were pre-treated with indicated amounts of compound for 48 hrs before injection into immunodeficient mice.

Compound: N=C(N)NCCC(=O)O [28 (β-GPA)]
- inhibition at 250 mg/kg ([1]; mouse, ip): 73.4%

Compound: Nc1ncnc2c1ncn2[C@@H]1O[C@H](COP(=O)(O)OP(=O)(O)OP(=O)(O)O)[C@@H](O)[C@H]1O [ATP]
- enhancement of suppressed metastasis phenotype in cells depleted of CKB ([2]; LvM3b with CKB knockdown pre-treated with 100 uM ATP, 21 days): more than 10 folds

Compound: N=C(N)NC[C@H](N)C(=O)O [Compound 125, (2S)-2-amino-3-carbamimidamidopropanoic acid]
- % Inhibition of Creatine-d3 Transport [1]: 4.5%

Compound: C[C@H](CC(=O)O)NC(=N)N [Compound 219, (3R)-3-carbamimidamidobutanoic acid]
- % Inhibition of Creatine-d3 Transport [1]: 79.0%

Compound: C[C@@H](CC(=O)O)NC(=N)N [Compound 220, (3S)-3-carbamimidamidobutanoic acid]
- % Inhibition of Creatine-d3 Transport [1]: 1.4%

Compound: N=C(N)N1CC(C(=O)O)C1 [Compound 258, 1-carbamimidoylazetidine-3-carboxylic acid]
- % Inhibition of Creatine-d3 Transport [1]: 71.8%

Compound: N=C(N)NC(CC(=O)O)C(F)(F)F (centres unmarked) [Compound 261, 3-guanidino-4,4,4-trifluorobutanoic acid]
- % Inhibition of Creatine-d3 Transport [1]: 24.7%

Compound: CCC(CC(=O)O)NC(=N)N (centres unmarked) [Compound 358, 3-carbamimidamidopentanoic acid]
- % Inhibition of Creatine-d3 Transport [1]: 11.1%

Compound: N=C(N)N1CCC(C(=O)O)C1 (centres unmarked) [Compound 376, 1-carbamimidoylpyrrolidine-3-carboxylic acid]
- % Inhibition of Creatine-d3 Transport [1]: 39.1%

Compound: CN(CC(=O)O)C(=N)N [creatine]
- rescue of metastasis suppression upon CKB knockdown ([2]; LvM3b cells with CKB knockdown pre-treated with 10 uM, day 21): rescued metastasis suppression

Compound: NC1=NCCN1CC(=O)O [cyclocreatine]
- metastatic colonization (bioluminescent measurements of liver metastasis) [3]: significantly reduced metastatic colonization
- Ki [4]: 5 mM

Compound: N=C(N)NCCC(=O)O [β-GPA, beta-guanidinopropionic acid]
- metastatic colonization (bioluminescent measurements of liver metastasis) [3]: significantly reduced metastatic colonization
- colon cancer metastasis to the liver ([3]; LvM3b cells, daily treatment for three weeks, bioluminescent imaging and gross anatomical examination): significant reduction in colon cancer metastasis to the liver
- average photon flux ratio (bioluminescence imaging) ([3]; LvM3b cells, β-GPA intra-peritoneal daily for three weeks, control group about 800): ~100
- average photon flux ratio (bioluminescence imaging) ([5]; 5×10^5 PANC1 cells pre-treated 48 hours with 10 mM, day 1 signal normalized to day zero, control group about 2.7): ~1.6
- tumor burden of pancreatic cancer cells in vivo ([5]; PANC1 cells pre-treated 48 hours with 10 mM, one day after injection): significant reduction in the tumor burden
